From PubChem BioAssay AID248 (DTP/NCI, 2004) come the findings set out here.

For this assay, the system named is L1210 leukemia ip in BDF1 mice, survival T/C. In words: NCI In Vivo Anticancer Drug Screen. Data for tumor model L1210 Leukemia (intraperitoneal) in B6D2F1 (BDF1) mice. The following applies: endpoint: mean survival time, higher = longer survival. In short, it runs like this: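 Mice bearing the transplanted tumor received compound or vehicle. Survival of the treated group was divided by that of the vehicle-treated control group to give the ratio.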

Setting [1] is: dose: 100.0 mg/kg/injection, schedule: Q04DX003 (ip), vehicle: Klucel (hydroxypropylcellulose) (HPC).
Setting [2] is: dose: 200.0 mg/kg/injection, schedule: Q04DX003 (ip), vehicle: Klucel (hydroxypropylcellulose) (HPC).
Where [3] appears, read: dose: 400.0 mg/kg/injection, schedule: Q04DX003 (ip), vehicle: Klucel (hydroxypropylcellulose) (HPC).
Setting [4] is: dose: 50.0 mg/kg/injection, schedule: Q04DX002 (ip), vehicle: Klucel (hydroxypropylcellulose) (HPC).
The mark [5] stands for this setting: dose: 100.0 mg/kg/injection, schedule: Q01DX001 (ip), vehicle: saline.
Setting [6] is: dose: 100.0 mg/kg/injection, schedule: Q04DX002 (ip), vehicle: Klucel (hydroxypropylcellulose) (HPC).
[7] abbreviates: dose: 200.0 mg/kg/injection, schedule: Q01DX001 (ip), vehicle: saline.
Where [8] appears, read: dose: 75.0 mg/kg/injection, schedule: Q01DX001 (ip), vehicle: other.
[9] abbreviates: dose: 150.0 mg/kg/injection, schedule: Q01DX001 (ip), vehicle: other.
[10] abbreviates: dose: 400.0 mg/kg/injection, schedule: Q01DX001 (ip), vehicle: saline.
The mark [11] stands for this setting: dose: 100.0 mg/kg/injection, schedule: Q01DX001 (ip), vehicle: saline with Tween-80.
Where [12] appears, read: dose: 100.0 mg/kg/injection, schedule: Q04DX003 (ip), vehicle: saline with Tween-80.
The mark [13] stands for this setting: dose: 200.0 mg/kg/injection, schedule: Q01DX009 (ip), vehicle: saline with Tween-80.
Setting [14] is: dose: 200.0 mg/kg/injection, schedule: Q04DX003 (ip), vehicle: saline with Tween-80.
[15] abbreviates: dose: 400.0 mg/kg/injection, schedule: Q04DX003 (ip), vehicle: saline with Tween-80.

Structures are written as SMILES. Several values for one entry are separate records, joined by “and”; a condition that tells them apart may be missing. Equal values may be shown once. Toxic doses and inconclusive results are not listed.

`COC(=O)CCCCC(=O)OCC#CC#CCOC(=O)CCCCC(=O)OC`: the T/C is 95 % of control (dose: 100.0 mg/kg/injection, schedule: Q01DX009 (ip), vehicle: Klucel (hydroxypropylcellulose) (HPC)); 91 % of control under setting [1]; 104 % of control (dose: 200.0 mg/kg/injection, schedule: Q01DX009 (ip), vehicle: Klucel (hydroxypropylcellulose) (HPC)); 92 % of control under setting [2]; 98 % of control (dose: 400.0 mg/kg/injection, schedule: Q01DX009 (ip), vehicle: Klucel (hydroxypropylcellulose) (HPC)); 92 % of control under setting [3].

With `O=C1C(O)=C(c2ccccc2)C(=O)C(O)=C1c1ccccc1`, the T/C is 95 % of control (dose: 25.0 mg/kg/injection, schedule: Q01DX001 (ip), vehicle: saline); 100 % of control (dose: 25.0 mg/kg/injection, schedule: Q01DX009 (ip), vehicle: Klucel (hydroxypropylcellulose) (HPC)); 104 % of control (dose: 50.0 mg/kg/injection, schedule: Q01DX001 (ip), vehicle: saline); 105 % of control (dose: 50.0 mg/kg/injection, schedule: Q01DX009 (ip), vehicle: Klucel (hydroxypropylcellulose) (HPC)); 98 % of control under setting [4]; 96 % of control under setting [5]. The T/C by setting is: under setting [6], 120 % of control; under setting [7], 104 % of control; (dose: 200.0 mg/kg/injection, schedule: Q04DX002 (ip), vehicle: Klucel (hydroxypropylcellulose) (HPC)) 91 % of control.

For `Cc1ccc2[nH]c(=S)n(-c3ccc(C)c(Cl)c3)c(=O)c2c1`, the T/C is, setting by setting: (dose: 100.0 mg/kg/injection, schedule: Q01DX009 (ip), vehicle: carboxymethylcellulose (CMC)) 95 % of control; (dose: 100.0 mg/kg/injection, schedule: Q04DX002 (ip), vehicle: carboxymethylcellulose (CMC)) 99 % of control and 89 % of control; (dose: 200.0 mg/kg/injection, schedule: Q01DX009 (ip), vehicle: carboxymethylcellulose (CMC)) 93 % of control and 89 % of control; (dose: 200.0 mg/kg/injection, schedule: Q04DX002 (ip), vehicle: carboxymethylcellulose (CMC)) 96 % of control and 99 % of control; (dose: 400.0 mg/kg/injection, schedule: Q01DX009 (ip), vehicle: carboxymethylcellulose (CMC)) 92 % of control and 89 % of control; (dose: 400.0 mg/kg/injection, schedule: Q04DX002 (ip), vehicle: carboxymethylcellulose (CMC)) 92 % of control.

For `O=C(NCCCl)NC1CC1c1ccccc1` (configuration not stated), the T/C under setting [8] was 97 % of control and the T/C under setting [9] was 103 % of control.

Take `CN(C)C(=S)SSSC(=S)N(C)C`: the T/C was 101 % of control (dose: 25.0 mg/kg/injection, schedule: Q04DX002 (ip), vehicle: Klucel (hydroxypropylcellulose) (HPC)); 94 % of control under setting [4]; 93 % of control and 105 % of control under setting [6].

In the case of `O=[N+]([O-])c1ccccc1N=C=S`, the T/C was 102 % of control (dose: 6.25 mg/kg/injection, schedule: Q01DX009 (ip), vehicle: gum acacia); 98 % of control (dose: 12.5 mg/kg/injection, schedule: Q01DX009 (ip), vehicle: gum acacia); 97 % of control and 103 % of control (dose: 25.0 mg/kg/injection, schedule: Q01DX009 (ip), vehicle: gum acacia); 98 % of control (dose: 25.0 mg/kg/injection, schedule: Q04DX002 (ip), vehicle: gum acacia); 106 % of control (dose: 50.0 mg/kg/injection, schedule: Q04DX002 (ip), vehicle: gum acacia); 103 % of control (dose: 100.0 mg/kg/injection, schedule: Q04DX002 (ip), vehicle: gum acacia).

Consider `CCOC(=O)C(C(C)=O)C(CCCCO)C(C(C)=O)C(=O)OCC` (configuration not stated), for which the T/C under setting [5] was 97 % of control, the T/C under setting [7] is 101 % of control and the T/C under setting [10] was 94 % of control.

For the compound `CN(C)c1ccc(C=Nc2ccc([N+](=O)[O-])cc2O)cc1`, the T/C was 97 % of control under setting [5], 95 % of control under setting [7] and 92 % of control under setting [10].

Turning to `Cc1ccc(C)c(C[P+](c2ccccc2)(c2ccccc2)c2ccccc2)c1`, the T/C (dose: 15.0 mg/kg/injection, schedule: Q01DX001 (ip), vehicle: saline) was 104 % of control.

As to `O=NN(CCCl)C(=O)NC(CCC(=O)O)C(=O)O` (configuration not stated), the T/C (dose: 13.0 mg/kg/injection, schedule: Q01DX001 (ip), vehicle: saline with Tween-80) was 123 % of control; the T/C (dose: 67.0 mg/kg/injection, schedule: Q01DX001 (ip), vehicle: saline with Tween-80) was 200 % of control; the T/C under setting [11] was 261 % of control; the T/C (dose: 150.0 mg/kg/injection, schedule: Q01DX001 (ip), vehicle: saline with Tween-80) is 331 % of control; the T/C (dose: 224.0 mg/kg/injection, schedule: Q01DX001 (ip), vehicle: saline with Tween-80) was 331 % of control; the T/C (dose: 335.0 mg/kg/injection, schedule: Q01DX001 (ip), vehicle: saline with Tween-80) was 192 % of control.

As for `Cc1ncc(C(=O)c2ccccc2)n1Cc1ccccc1`, the T/C under setting [11] is 88 % of control; the T/C under setting [12] is 94 % of control; the T/C (dose: 200.0 mg/kg/injection, schedule: Q01DX001 (ip), vehicle: saline with Tween-80) is 90 % of control; the T/C under setting [13] is 94 % of control and 107 % of control; the T/C under setting [14] was 92 % of control; the T/C (dose: 400.0 mg/kg/injection, schedule: Q01DX001 (ip), vehicle: saline with Tween-80) is 95 % of control. Moreover, the T/C by setting is: (dose: 400.0 mg/kg/injection, schedule: Q01DX009 (ip), vehicle: saline with Tween-80) 96 % of control and 100 % of control; under setting [15], 90 % of control.

`O=C(/C=C/c1ccccc1)c1ccc(Cl)c(Cl)c1`: the T/C is, setting by setting: (dose: 50.0 mg/kg/injection, schedule: Q01DX009 (ip), vehicle: saline with Tween-80) 101 % of control; (dose: 100.0 mg/kg/injection, schedule: Q01DX009 (ip), vehicle: saline with Tween-80) 101 % of control; under setting [13], 97 % of control.

Turning to `CCCCCCCCc1nc2c(c(=O)n(C)c(=O)n2C)n1C`, the T/C (dose: 45.0 mg/kg/injection, schedule: Q01DX001 (ip), vehicle: saline) is 95 % of control and 101 % of control; the T/C (dose: 67.0 mg/kg/injection, schedule: Q01DX001 (ip), vehicle: saline) is 101 % of control and 104 % of control; the T/C under setting [5] is 97 % of control and 104 % of control; the T/C (dose: 150.0 mg/kg/injection, schedule: Q01DX001 (ip), vehicle: saline) is 95 % of control and 101 % of control.

With `O=Cc1ccc([N+](=O)[O-])cc1Cl`, the T/C by setting is: under setting [8], 111 % of control; under setting [9], 94 % of control; (dose: 300.0 mg/kg/injection, schedule: Q01DX001 (ip), vehicle: other) 97 % of control.

As for `O=C(NO)c1ccccc1F`, the T/C runs as follows: under setting [5], 97 % of control; under setting [7], 110 % of control; under setting [10], 93 % of control.

As to `CC(C)(C)OC(=O)C(C1NC2C(=O)OCC2(CO)S1)N1C(=O)c2ccccc2C1=O` (configuration not stated), the T/C is 95 % of control under setting [1], 92 % of control under setting [2] and 101 % of control under setting [3].

With `O=C(O)c1ccccc1Nc1cccc(C(F)(F)F)c1`, the T/C runs as follows: under setting [12], 104 % of control; under setting [14], 104 % of control; under setting [15], 104 % of control.
